Experiments:
[1] = Fluorescence titration of the Schiff base probe with Zn2+ (Examples 2-7, FIG. 4); conditions: for fluorescence intensity: probe 2×10^-5mol/L in methanol, 3mL, EX=350nm, EM=475nm
[2] = Quantitative analysis of Zn2+: linear relation of fluorescence intensity and Zn2+ concentration, detection limit (Examples 8-11, FIG. 5)
[3] = Qualitative/selective recognition of metal ions by the probe, Zn2+ (FIG. 6)
[4] = Qualitative/selective recognition of metal ions by the probe, Cd2+ (FIG. 6); conditions: 100uL of 1×10^-2mol/L Cd2+; probe solution 3mL; EX=350nm, EM=475nm
[5] = Anti-interference of the probe for Zn2+ in the presence of other metal ions (FIG. 7); conditions: for fluorescence intensity: EX=350nm, EM=475nm

CC(C)(C)c1cc(C=NNc2ncccc2Cl)c(O)c(-c2cc(C(C)(C)C)cc(C=NNc3ncccc3Cl)c2O)c1 [荧光探针, 5,5'-二叔丁基-2,2'-二羟基联苯-3,3'-二甲醛缩3-氯-2-肼基吡啶席夫碱]
fluorescence intensity ([1]; 1μL of 1×10^-2mol/L Zn2+ added): 83.56
fluorescence intensity ([1]; 6μL of 1×10^-2mol/L Zn2+ added): 468.2
fluorescence intensity ([1]; 12μL of 1×10^-2mol/L Zn2+ added): 852.4
fluorescence intensity ([1]; 18μL of 1×10^-2mol/L Zn2+ added): 952.4
visible change under UV lamp ([1]; 365nm, after recognition of Zn2+): 在紫外灯365nm下即可看到明显变化
fluorescence intensity enhancement relative to blank ([1]; after recognition of Zn2+ (18μL of 1×10^-2mol/L Zn2+) vs probe blank): 34 fold
fluorescence intensity ([1]; probe blank solution without Zn2+, slits 5nm): 28.02
fluorescence intensity ([2]; Zn2+ 30μM in the system, EX=350nm, EM=475nm): 119.8
fluorescence intensity ([2]; Zn2+ 50μM in the system, EX=350nm, EM=475nm): 440.2
fluorescence intensity ([2]; Zn2+ 70μM in the system, EX=350nm, EM=475nm): 765.9
detection limit ([2]; Zn2+, calculated): 6.05e-08 mol/L
linear range of fluorescence intensity vs Zn2+ concentration ([2]; good linear relation, EX=350nm, EM=475nm): 30 to 70 µM
fluorescence intensity ([3]; 100uL of 1×10^-2mol/L Zn2+, probe solution 3mL, EX=350nm, EM=475nm): 923.5
selectivity of recognition of Zn2+ ([3]; vs 18 other metal ions, 100uL of 1×10^-2mol/L each): 较好的选择性
fluorescence intensity [4]: 300.2
fluorescence intensity ([5]; 100uL Zn2+ plus 100uL Ba2+ (1×10^-2mol/L each)): 694.5
fluorescence intensity ([5]; 100uL Zn2+ plus equal volume of Ca2+ (1×10^-2mol/L each)): 914.6
interference by other metal ions in recognition of Zn2+ ([5]; other metal ions coexisting with Zn2+): 可避免其它金属离子共存时产生的干扰,可实现对Zn2+的专一性识别

Source: patent CN110194737A, “一种联水杨醛缩3-氯-2-肼基吡啶席夫碱合成方法与应用” (Harbin University of Science and Technology, priority 2019, dated 2019)
